Experimental data from PubChem BioAssay (NCI).
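48-hour exposure; five concentrations; linearly interpolated endpoints. TGI marks complete inhibition of growth.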

Tests used:
Assay in all cases: NCI anticancer screen, dose series, 48 h
UACC-257 melanoma = test system: UACC-257 melanoma
UACC-62 melanoma = test system: UACC-62 melanoma
CCRF-CEM leukemia = test system: CCRF-CEM leukemia
RXF 393 renal = test system: RXF 393 renal
M14 melanoma = test system: M14 melanoma
MOLT-4 leukemia = test system: MOLT-4 leukemia
MDA-MB-435 = test system: MDA-MB-435
SK-MEL-28 melanoma = test system: SK-MEL-28 melanoma
MCF7 breast = test system: MCF7 breast
HCC-2998 colon = test system: HCC-2998 colon
KM12 colon = test system: KM12 colon
SK-OV-3 ovarian = test system: SK-OV-3 ovarian
COLO 205 colon = test system: COLO 205 colon
SF-268 CNS = test system: SF-268 CNS
NCI-H226 lung = test system: NCI-H226 lung
HCT-116 colon = test system: HCT-116 colon
SW-620 colon = test system: SW-620 colon
SNB-75 CNS = test system: SNB-75 CNS
SNB-19 CNS = test system: SNB-19 CNS
EKVX NSCLC = test system: EKVX NSCLC
TK-10 renal = test system: TK-10 renal
OVCAR-5 ovarian = test system: OVCAR-5 ovarian
T-47D breast = test system: T-47D breast
RPMI-8226 leukemia = test system: RPMI-8226 leukemia
IGROV1 ovarian = test system: IGROV1 ovarian
NCI-H522 lung = test system: NCI-H522 lung
DU-145 prostate = test system: DU-145 prostate
ACHN renal = test system: ACHN renal
SK-MEL-2 melanoma = test system: SK-MEL-2 melanoma
SN12C renal = test system: SN12C renal
SK-MEL-5 melanoma = test system: SK-MEL-5 melanoma
HL-60(TB) leukemia = test system: HL-60(TB) leukemia
OVCAR-8 ovarian = test system: OVCAR-8 ovarian
BT-549 breast = test system: BT-549 breast
UO-31 renal = test system: UO-31 renal
OVCAR-4 ovarian = test system: OVCAR-4 ovarian
HT29 colon = test system: HT29 colon
SF-295 CNS = test system: SF-295 CNS
A549 NSCLC = test system: A549 NSCLC
HS 578T breast = test system: HS 578T breast
786-0 renal = test system: 786-0 renal
NCI-H460 lung = test system: NCI-H460 lung
MALME-3M melanoma = test system: MALME-3M melanoma
HCT-15 colon = test system: HCT-15 colon
OVCAR-3 ovarian = test system: OVCAR-3 ovarian
NCI/ADR-RES ovarian = test system: NCI/ADR-RES ovarian
MDA-MB-231 breast = test system: MDA-MB-231 breast
U251 CNS = test system: U251 CNS
PC-3 prostate = test system: PC-3 prostate
NCI-H23 lung = test system: NCI-H23 lung
HOP-62 NSCLC = test system: HOP-62 NSCLC
MDA-N = test system: MDA-N
K-562 leukemia = test system: K-562 leukemia
CAKI-1 renal = test system: CAKI-1 renal
SF-539 CNS = test system: SF-539 CNS
HOP-92 NSCLC = test system: HOP-92 NSCLC
A498 renal = test system: A498 renal
LOX IMVI melanoma = test system: LOX IMVI melanoma

Measured: TGI

N#C/C(=N/Nc1nc[nH]c1C(N)=O)C(=O)Nc1ccccc1
89.6 µM: OVCAR-3 ovarian
45.7 µM: NCI-H522 lung
not listed: CAKI-1 renal | SF-539 CNS | HOP-92 NSCLC | A498 renal | LOX IMVI melanoma
> 100 µM: all other assays above

O=C1NC(N/N=C/c2c[nH]c3ccccc23)=N/C1=C\c1cccs1
71.9 µM: A498 renal
60.6 µM: HL-60(TB) leukemia
77.3 µM: OVCAR-3 ovarian
not listed: HCC-2998 colon
> 100 µM: all other assays above
